Patent publication US12213483B1, “Herbicidal compositions comprising trifludimoxazin” (BASF SE, priority 2024, dated 2025)
Where “and” joins values, the source holds several entries; their conditions need not be identical. Identical values can stand only once.

How the values were obtained:
Assay type in all cases: in vivo
[1] = system: Abutilon theophrasti (ABUTH); test: Post-emergence application in greenhouse trials, ABUTH
Procedure: (§1) In the examples below, using the method of S. R. Colby (1967) “Calculating synergistic and antagonistic responses of herbicide combinations”, Weeds 15, p. 22ff., the value E, which is expected if the activity of the individual active compounds is only additive, was calculated: E=X+Y−(X·Y/100) • where • X=percent activity using active herbicide A at an application rate a; • Y=percent activity using active trifludimoxazin at an application rate b; • E=expected activity (in %) by A+B at application rates a+b.
(§2) If the value found experimentally is higher than the value E calculated according to Colby, a synergistic effect is present.
(§3) The culture containers used were plastic pots containing loamy sand with approximately 3.0% of humus as substrate. The seeds of the test plants were sown separately for each species.
(§4) For the post-emergence treatment, the test plants were grown to a plant height of from 3 to 15 cm, depending on the plant habit, and only then treated with the active compounds which had been suspended or emulsified in water. To this end, the test plants were either sown directly, and grown in the same containers, or they were first grown separately as seedlings and transplanted into the test containers a few days prior to treatment.
(§5) Depending on the species, the plants were kept at 10-25° C. and 20-35° C., respectively.
(§6) The test period extended over 2 to 4 weeks. During this time, the plants were tended and their response to the individual treatments was evaluated.
(§7) Evaluation was carried out using a scale from 0 to 100. 100 means no emergence of the plants, or complete destruction of at least the above-ground parts, and 0 means no damage or normal course of growth. A good herbicidal activity is given at values of at least 70, and very good herbicidal activity is given at values of at least 85.
(§8) In the greenhouse trials, unless indicated otherwise, herbicide A, trifludimoxazin and saflufenacil were formulated (50 g/I) and applied with addition of 1% MSO (methylated seed oil) as adjuvant. The solvent used was water (200 I/ha).

Kochia scoparia (KCHSC) = test: Post-emergence application in greenhouse trials, KCHSC
Procedure: as §1, §2, §3, §4, §5, §6, §7, §8

[2] = system: Commelina benghalensis (COMBE); test: Post-emergence application in greenhouse trials, COMBE; conditions: 20 DAT; growth stage 21; 0.9 g ai/ha
Procedure: as §1, §2, §3, §4, §5, §6, §7, §8

Avena fatua (AVEFA) [3] = test: Post-emergence application in field trials, AVEFA; conditions: 29 DAT; water volume 100 l/ha; pre plant burndown; growth stage 14-23; height 24-40 cm; 18 g ai/ha
Procedure: as §1, §2
(§9) On field test sites, natural weed infestation or seeded weeds were treated post-emergence of the weeds.
(§10) In the field trials, the weedy plants were treated as indicated below.
(§11) Herbicide A-1 (342 g/I), trifludimoxazin (500 g/I) and saflufenacil (342 g/I) were, together with addition of 1% MSO (methylated seed oil) as adjuvant (unless indicated otherwise), formulated in water as distribution medium as indicated and sprayed with commercial flat fan nozzles.
(§12) In the following experiments, the herbicidal activity for the individual herbicidal compositions (solo and mixture applications) was assessed at the indicated days after treatment (DAT). The assessments for the damage on undesired weeds caused by the composition was carried out using a scale from 0 to 100%, compared to the untreated control plants. Here, 0 means no damage and 100 means complete destruction of the plants.
(§13) Herbicide A-1 (100 g/l) and trifludimoxazin (500 g/l) were, together with addition of 1% MSO (methylated seed oil) as adjuvant (unless indicated otherwise), formulated in water as distribution medium as indicated and sprayed with commercial flat fan nozzles.

[4] = system: Lolium multiflorum (LOLMU); test: Post-emergence application in greenhouse trials, LOLMU; conditions: 20 DAT; growth stage 13; 0.3 g ai/ha
Procedure: as §1, §2, §3, §4, §5, §6, §7, §8

Setaria viridis (SETVI) = test: Post-emergence application in greenhouse trials, SETVI
Procedure: as §1, §2, §3, §4, §5, §6, §7, §8

[5] = system: Sorghum halapense (SORHA); test: Post-emergence application in greenhouse trials, SORHA; conditions: 20 DAT; growth stage 14; 0.9 g ai/ha
Procedure: as §1, §2, §3, §4, §5, §6, §7, §8

Hordeum vulgare (HORVS) = test: Post-emergence application in field trials, HORVS; conditions: 29 DAT; water volume 100 l/ha; pre plant burndown; growth stage 15-24; height 25-45 cm; 18 g ai/ha
Procedure: as §1, §2, §9, §10, §11, §12, §13

Avena fatua (AVEFA) [6] = test: Post-emergence application in greenhouse trials, AVEFA; conditions: 20 DAT; growth stage 13; 0.3 g ai/ha
Procedure: as §1, §2, §3, §4, §5, §6, §7, §8

[7] = system: Digitaria sanguinales (DIGSA); test: Post-emergence application in greenhouse trials, DIGSA; conditions: 7 DAT; GS 12; C-1 0.3 g ai/ha
Procedure: as §1, §2, §3, §4, §5, §6, §7, §8

CC(C)N(C)S(=O)(=O)NC(=O)c1cc(-n2c(=O)cc(C(F)(F)F)n(C)c2=O)c(F)cc1Cl [C-1, saflufenacil]
% Herbicidal activity ([1]; 6 DAT, GS 33, C-1 1.1 g ai/ha): 45%
% Herbicidal activity ([1]; 20 DAT, growth stage 33, 1.1 g ai/ha): 0%
% Herbicidal activity (Kochia scoparia (KCHSC); 6 DAT, GS 33, C-1 0.5 g ai/ha): 60%
% Herbicidal activity (Kochia scoparia (KCHSC); 20 DAT, growth stage 33, 0.5 g ai/ha): 40%
% Herbicidal activity (Kochia scoparia (KCHSC); 20 DAT, growth stage 33, 0.9 g ai/ha): 60%
% Herbicidal activity [2]: 80%
% Herbicidal activity (Avena fatua (AVEFA) [3]): 0%
% Herbicidal activity [4]: 0%
% Herbicidal activity (Setaria viridis (SETVI); 7 DAT, GS 14, C-1 0.9 g ai/ha): 35%
% Herbicidal activity (Setaria viridis (SETVI); 20 DAT, growth stage 14, 0.9 g ai/ha): 35%
% Herbicidal activity [5]: 0%
% Herbicidal activity (Hordeum vulgare (HORVS)): 0%
% Herbicidal activity (Avena fatua (AVEFA) [6]): 0%
% Herbicidal activity [7]: 10% and 15%
